From patent US20230227447A1, “BENZYLAMINE DERIVATIVES AS DDRS INHIBITORS” (CHIESI FARMACEUTICI S.P.A., priority 2020, published 2023)
pIC50, pKi: −log10 of the molar value. Where a name gives a salt, the structure may show the parent alone. Each block holds one compound with its values, some of them ahead of it.

How the values were obtained:
DDR1 [1] = target: T1, DDR1 (Homo sapiens, UniProt Q08345); assay: DDR1 cell based assay (PathHunter U2OS DDR1 assay); design: host or cells: U2OS-DDR1; conditions: U2OS-DDR1 cells, bovine Type II Collagen 20 μg/ml, luminescence
Protocol: The inhibition of DDR1 receptor activation by compounds was evaluated by PathHunter® U2OS DDR1 assay (Eurofins DiscoverX), according to the manufacturer's instructions. Briefly, U2OS-DDR1 cells were seeded in white 384-well plates at a density of 5000 cells/well and incubated for 2 hours at 37° C. and 5% CO2. Cells were then treated with compounds at different concentrations and incubated for 30 minutes, before stimulation with bovine Type II Collagen 20 μg/ml and incubation overnight at 37° C. and 5% CO2. PathHunter Detection Reagents were prepared according to the protocol provided by DiscoverX and 20 μl/well of this mix were added to each well. After incubating the plates for 1 hour at room temperature in the dark, luminescence signal was acquired with a plate reader. Raw data were normalized to vehicle control (0% for normalization) and positive control (100% for normalization; cells treated with 20 μg/ml collagen II) and IC50 parameters were calculated in GraphPad Prism 8.0 software, using sigmoidal dose-response curve fitting with variable slope.

DDR1 [2] = target: T1, DDR1; assay: DDR1 binding assay (LanthaScreen Europium Kinase Binding assay); design: purchased Carna Biosciences; conditions: 5 nM DDR1, 20 nM Kinase Tracer 178, 1 hour at room temperature; Ki from IC50 by Cheng-Prusoff
Protocol: (§1) DDR1 and DDR2 binding assays were performed using Life Technologies LanthaScreen™ Europium Kinase Binding assay. The compounds were incubated with 5 nM DDR1 (Carna Biosciences) or 5 nM DDR2 (Life Technologies) for 1 hour at room temperature in white 384-well OptiPlate (PerkinElmer), containing 20 nM or 10 nM Kinase Tracer 178 respectively and 2 nM Europium labelled anti-GST antibody (Life Technologies) in assay buffer (50 mM HEPES pH 7.5, 10 mM MgCl2, 1 mM EGTA and 0.01% BRIJ35).
(§2) The ratio of fluorescence emission 665 nm/615 nm after excitation at 340 nm was obtained using the Tecan Spark 20M plate reader. IC50 values were determined in GraphPad Prism 7.0 software, using 4 parameter model: log(inhibitor) vs. response. IC50 values were converted in Ki using the Cheng-Prusoff equation (Ki=IC50/(1+[Tracer]/Kd).

DDR2 [3] = target: T2, DDR2 (Homo sapiens, UniProt Q16832); assay: DDR2 binding assay (LanthaScreen Europium Kinase Binding assay); design: purchased Life Technologies; conditions: 5 nM DDR2, 10 nM Kinase Tracer 178, 1 hour at room temperature; Ki from IC50 by Cheng-Prusoff
T2 sequence (Q16832 22-855): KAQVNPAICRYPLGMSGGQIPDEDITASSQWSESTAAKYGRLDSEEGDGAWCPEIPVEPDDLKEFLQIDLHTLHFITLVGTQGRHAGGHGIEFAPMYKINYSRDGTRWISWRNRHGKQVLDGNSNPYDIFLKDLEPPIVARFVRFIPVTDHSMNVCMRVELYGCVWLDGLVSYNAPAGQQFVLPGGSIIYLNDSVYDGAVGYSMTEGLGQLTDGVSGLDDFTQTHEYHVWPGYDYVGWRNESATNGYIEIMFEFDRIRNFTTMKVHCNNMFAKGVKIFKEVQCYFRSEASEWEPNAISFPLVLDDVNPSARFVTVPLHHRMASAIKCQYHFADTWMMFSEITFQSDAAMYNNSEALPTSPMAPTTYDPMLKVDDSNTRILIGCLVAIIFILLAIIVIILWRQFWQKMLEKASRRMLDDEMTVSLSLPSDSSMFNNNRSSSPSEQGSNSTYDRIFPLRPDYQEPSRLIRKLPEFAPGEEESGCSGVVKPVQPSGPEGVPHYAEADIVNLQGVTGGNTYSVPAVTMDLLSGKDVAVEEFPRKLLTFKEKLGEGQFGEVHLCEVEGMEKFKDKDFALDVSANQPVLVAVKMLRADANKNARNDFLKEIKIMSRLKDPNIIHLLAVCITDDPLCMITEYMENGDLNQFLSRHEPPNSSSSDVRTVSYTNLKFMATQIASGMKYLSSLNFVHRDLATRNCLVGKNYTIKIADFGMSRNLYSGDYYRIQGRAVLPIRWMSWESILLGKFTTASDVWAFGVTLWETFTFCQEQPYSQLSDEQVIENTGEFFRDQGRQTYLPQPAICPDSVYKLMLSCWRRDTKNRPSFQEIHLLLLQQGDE
Protocol: as §1, §2

DDR2 [4] = target: T2, DDR2; assay: DDR2 cell based assay (phospho-ELISA in HEK293T-DDR2 recombinant cells); design: expressed in transfected cells; host or cells: HEK293T-DDR2 recombinant cells; conditions: bovine Type II Collagen 50 μg/ml
Protocol: The inhibition of DDR2 phosphorylation by compounds was evaluated in HEK293T-DDR2 recombinant cells by phospho-ELISA assay. Briefly, HEK293T-DDR2 cells were seeded in poly-D-lysine-coated 24-well plates at a density of 250.000 cells/well and incubated for 1.5 hours at 37° C. and 5% CO2 in DMEM+10% FBS. After that, the medium was changed to serum-free DMEM and cells were incubated for 3 hours. Then. test compounds were added at different concentrations 30 minutes before stimulation with bovine Type II Collagen at 50 μg/ml for further 3 hours. For DDR2 phospho-ELISA assay (DuoSet IC Human Phospho-DDR2; R&D Systems), protein extracts were obtained by adding 60 μl/well of lysis buffer prepared according to the manufacturer's instructions. Protein concentration in the samples was determined by BCA assay and the levels of phospho-DDR2 were determined following R&D Systems indications. Raw data were normalized to maximal inhibition control (0% for normalization) and positive control (100% for normalization; cells treated with […] collagen II) and IC50 parameters were calculated in GraphPad Prism 8.0 software, using sigmoidal dose-response curve fitting with variable slope.

T1 sequence (Q08345 19-913): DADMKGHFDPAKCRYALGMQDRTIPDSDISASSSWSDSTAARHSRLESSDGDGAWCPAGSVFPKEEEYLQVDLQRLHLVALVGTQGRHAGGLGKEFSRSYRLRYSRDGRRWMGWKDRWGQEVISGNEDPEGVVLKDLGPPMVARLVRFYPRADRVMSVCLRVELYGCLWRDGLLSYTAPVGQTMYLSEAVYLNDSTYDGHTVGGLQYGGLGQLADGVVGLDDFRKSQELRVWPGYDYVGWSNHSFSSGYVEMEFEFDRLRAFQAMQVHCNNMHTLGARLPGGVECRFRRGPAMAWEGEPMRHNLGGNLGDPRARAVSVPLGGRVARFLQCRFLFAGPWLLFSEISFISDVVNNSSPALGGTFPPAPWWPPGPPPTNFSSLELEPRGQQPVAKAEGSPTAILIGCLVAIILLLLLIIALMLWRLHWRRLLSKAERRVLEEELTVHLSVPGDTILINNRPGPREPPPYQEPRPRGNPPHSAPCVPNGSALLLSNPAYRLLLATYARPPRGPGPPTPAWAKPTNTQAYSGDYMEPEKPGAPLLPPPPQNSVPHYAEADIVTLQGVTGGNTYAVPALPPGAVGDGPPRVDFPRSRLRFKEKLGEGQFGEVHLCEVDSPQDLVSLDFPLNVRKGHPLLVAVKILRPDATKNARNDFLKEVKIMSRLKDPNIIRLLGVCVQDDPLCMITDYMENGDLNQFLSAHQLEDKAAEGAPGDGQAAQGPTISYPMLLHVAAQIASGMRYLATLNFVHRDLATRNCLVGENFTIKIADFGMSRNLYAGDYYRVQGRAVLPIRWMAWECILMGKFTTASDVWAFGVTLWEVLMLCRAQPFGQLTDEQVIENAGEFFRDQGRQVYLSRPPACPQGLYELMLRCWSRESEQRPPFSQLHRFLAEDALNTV

Compound: O=C(Nc1cccc(OC(F)(F)F)c1)c1ccc(F)c(CNc2cnc3[nH]ccc3c2)c1 [Example 38, 3-(((1H-pyrrolo[2,3-b]pyridin-5-yl)amino)methyl)-4-fluoro-N-(3-(trifluoromethoxy)phenyl)benzamide]
pIC50 (DDR1 [1]): > 8.00
pKi (DDR1 [2]): > 7.52
pKi (DDR2 [3]): > 7.52
pIC50 (DDR2 [4]): 7.82 to 8.00

Compound: CNC(=O)c1cc(NCc2cc(C(=O)Nc3cc(CN4CCN(C)CC4)cc(C(F)(F)F)c3)ccc2C)ccn1 [Example 24, N-methyl-4-((2-methyl-5-((3-((4-methylpiperazin-1-yl)methyl)-5-(trifluoromethyl)phenyl)carbamoyl)benzyl)amino)picolinamide]
pKi (DDR1 [2]): > 7.52
pKi (DDR2 [3]): > 7.52

Compound: CCCc1ccc(C(=O)Nc2cc(CN3CCN(C)CC3)cc(C(F)(F)F)c2)cc1CNC(=O)c1cnc2ccccn12 [Example 28, N-(5-((3-((4-methylpiperazin-1-yl)methyl)-5-(trifluoromethyl)phenyl)carbamoyl)-2-propylbenzyl)imidazo[1,2-a]pyridine-3-carboxamide formate salt]
pKi (DDR1 [2]): 6.00 to 6.52
pKi (DDR2 [3]): 6.00 to 6.52

Compound: CC(C)c1ccc(C(=O)Nc2cc(CN3CCN(C)CC3)cc(C(F)(F)F)c2)cc1CNC(=O)c1cnc2[nH]ccc2c1 [Example 27, N-(2-isopropyl-5-((3-((4-methylpiperazin-1-yl)methyl)-5-(trifluoromethyl)phenyl)carbamoyl)benzyl)-1H-pyrrolo[2,3-b]pyridine-5-carboxamide]
pKi (DDR1 [2]): 6.00 to 6.52
pKi (DDR2 [3]): 6.00 to 6.52

Compound: O=C(Nc1cccc(C(F)(F)F)c1)c1ccc(F)c(CNc2cnc3[nH]ccc3c2)c1 [Example 33, 3-(((1H-pyrrolo[2,3-b]pyridin-5-yl)amino)methyl)-4-fluoro-N-(3-(trifluoromethyl)phenyl)benzamide]
pKi (DDR1 [2]): > 7.52
pKi (DDR2 [3]): > 7.52

Compound: Cn1ccc(-c2cncc(NCc3cc(C(=O)Nc4cccc(OC(F)(F)F)c4)ccc3F)c2)n1 [Example 35, 4-fluoro-3-(((5-(1-methyl-1H-pyrazol-3-yl)pyridin-3-yl)amino)methyl)-N-(3-(trifluoromethoxy)phenyl)benzamide]
pIC50 (DDR1 [1]): > 8.00
pKi (DDR1 [2]): > 7.52
pKi (DDR2 [3]): > 7.52
pIC50 (DDR2 [4]): > 8.00

Compound: Cc1ccc(C(=O)Nc2cc(CN3CCN(C)CC3)cc(C(F)(F)F)c2)cc1CNc1cnc2ccnn2c1 [Example 18, 4-methyl-N-(3-((4-methylpiperazin-1-yl)methyl)-5-(trifluoromethyl)phenyl)-3-((pyrazolo[1,5-a]pyrimidin-6-ylamino)methyl)benzamide]
pKi (DDR1 [2]): > 7.52
pKi (DDR2 [3]): 6.52 to 7.52

Compound: Cc1ccc(NC(=O)c2cc(CN3CCN(C)CC3)cc(C(F)(F)F)c2)cc1CNCc1cnc2ccccn12 [Example 13, N-(3-(((imidazo[1,2-a]pyridin-3-ylmethyl)amino)methyl)-4-methylphenyl)-3-((4-methylpiperazin-1-yl)methyl)-5-(trifluoromethyl)benzamide]
pKi (DDR1 [2]): > 7.52
pKi (DDR2 [3]): > 7.52

Compound: CCCc1ccc(C(=O)Nc2cc(CN3CCN(C)CC3)cc(C(F)(F)F)c2)cc1CNc1cnc2ccnn2c1 [Example 17, N-(3-((4-methylpiperazin-1-yl)methyl)-5-(trifluoromethyl)phenyl)-4-propyl-3-((pyrazolo[1,5-a]pyrimidin-6-ylamino)methyl)benzamide]
pKi (DDR1 [2]): 6.52 to 7.52
pKi (DDR2 [3]): 6.52 to 7.52

Compound: Cc1cn(-c2cc(NC(=O)c3ccc(C)c(CNc4ccc5[nH]ncc5c4)c3)cc(C(F)(F)F)c2)cn1 [Example 4, 3-(((1H-indazol-5-yl)amino)methyl)-4-methyl-N-(3-(4-methyl-1H-imidazol-1-yl)-5-(trifluoromethyl)phenyl)benzamide]
pKi (DDR1 [2]): 6.52 to 7.52
pKi (DDR2 [3]): 6.52 to 7.52

Compound: CNC(=O)c1cc(CNCc2cc(NC(=O)c3cc(CN4CCN(C)CC4)cc(C(F)(F)F)c3)ccc2C)ccn1 [Example 14, N-methyl-4-(((2-methyl-5-(3-((4-methylpiperazin-1-yl)methyl)-5-(trifluoromethyl)benzamido)benzyl)amino)methyl)picolinamide]
pKi (DDR1 [2]): 6.52 to 7.52
pKi (DDR2 [3]): 6.52 to 7.52

Further lines, results first:

pIC50 (DDR1 [1]): > 8.00
pKi (DDR1 [2]): > 7.52
pKi (DDR2 [3]): > 7.52
pIC50 (DDR2 [4]): > 8.00
Compound: Cc1ccc(C(=O)Nc2cccc(C(F)(F)F)c2)cc1CNc1cccnc1 [Example 34, 4-methyl-3-((pyridin-3-ylamino)methyl)-N-(3-(trifluoromethyl)phenyl)benzamide]

pIC50 (DDR1 [1]): > 8.00
pKi (DDR1 [2]): > 7.52
pKi (DDR2 [3]): > 7.52
pIC50 (DDR2 [4]): > 8.00
Compound: COc1ccc(NC(=O)c2ccc(C)c(CNc3cncnc3)c2)cc1C(F)(F)F [Example 31, N-(4-methoxy-3-(trifluoromethyl)phenyl)-4-methyl-3-((pyrimidin-5-ylamino)methyl)benzamide]

pIC50 (DDR1 [1]): > 8.00
pKi (DDR1 [2]): > 7.52
pKi (DDR2 [3]): > 7.52
pIC50 (DDR2 [4]): 7.82 to 8.00
Compound: Cc1cn(-c2cc(NC(=O)c3ccc(C)c(CNc4cncnc4)c3)cc(C(F)(F)F)c2)cn1 [Example 20, 4-methyl-N-(3-(4-methyl-1H-imidazol-1-yl)-5-(trifluoromethyl)phenyl)-3-((pyrimidin-5-ylamino)methyl)benzamide]

pIC50 (DDR1 [1]): > 8.00
pKi (DDR1 [2]): > 7.52
pKi (DDR2 [3]): > 7.52
pIC50 (DDR2 [4]): 7.82 to 8.00
Compound: Cc1ccc(C(=O)Nc2cccc(OC(F)(F)F)c2)cc1CNc1cncnc1 [Example 37, 4-methyl-3-((pyrimidin-5-ylamino)methyl)-N-(3-(trifluoromethoxy)phenyl)benzamide]

pIC50 (DDR1 [1]): > 8.00
pKi (DDR1 [2]): > 7.52
pKi (DDR2 [3]): > 7.52
pIC50 (DDR2 [4]): > 8.00
Compound: Cc1ccc(C(=O)Nc2cccc(C(F)(F)F)c2)cc1CNc1cncnc1 [Example 32, 4-methyl-3-((pyrimidin-5-ylamino)methyl)-N-(3-(trifluoromethyl)phenyl)benzamide]
